Data reported in patent US7576222B2, “Alkynyl-containing tryptophan derivative inhibitors of TACE/matrix metalloproteinase” (priority 2004, dated 2009).

These compounds were tested against T1, catalytic domain of the recombinant TACE protein (Homo sapiens, UniProt P78536) (assay: TACE FRET assay using TACE cat). Details: not given.
T1 construct: The catalytic domain of the recombinant TACE protein was expressed and purified; made in house
Assay type: biochemical
Description: TACE FRET Assay Using TACE Cat
“K” is the IC50. Generally, “n” and “B” are floated, noting that n (Hill slope) should be close to 1 and B (background offset) to 0.
Pro-TNF-α substrate peptide Abz-[…]-Dpa (AnaSpec, San Jose, Calif., WARC-1) was prepared as a 2 mM stock solution in the TACE assay buffer (50 mM Tris-HCl, pH 7.4, 25 mM NaCl, 4% Glycerol, 0.005% Brij 35). The catalytic domain of the recombinant TACE protein was expressed and purified. The TACE protein (1 ug/ml) was pretreated with the inhibitors at various concentrations for 10 min. at room temperature. The reaction was initiated by the addition of the substrate peptide. […] The initial rate (slope) of the reaction was determined using a fluorescence plate reader (Molecular Devices, Spectra Max Gemini XS).

T1 sequence (P78536 223-474 limits assumed): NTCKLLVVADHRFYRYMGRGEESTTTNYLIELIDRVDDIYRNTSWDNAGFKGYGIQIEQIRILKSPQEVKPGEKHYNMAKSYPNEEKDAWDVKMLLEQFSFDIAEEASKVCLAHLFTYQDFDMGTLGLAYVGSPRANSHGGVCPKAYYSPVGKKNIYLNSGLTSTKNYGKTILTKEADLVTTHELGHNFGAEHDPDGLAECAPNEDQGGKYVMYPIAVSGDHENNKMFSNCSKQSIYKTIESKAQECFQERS

In order of falling IC50:
1. CC#CCOc1ccc(S(=O)(=O)N[C@H](Cc2cn(C)c3ccccc23)C(=O)O)cc1 [Example 21, N-{[4-(but-2-ynyloxy)phenyl]sulfonyl}-1-methyl-D-tryptophan]  1400 nM
2. CC#CCOc1ccc(S(=O)(=O)N[C@@H](Cc2cn(CC(C)C)c3ccc(OC)cc23)C(=O)O)cc1 [Example 67, N-{[4-(but-2-ynyloxy)phenyl]sulfonyl}-1-isobutyl-5-methoxytryptophan]  1230 nM

Same assay, conditions: TACE FRET assay, catalytic domain of recombinant TACE; read-out: TACE IC50

CC#CCOc1ccc(S(=O)(=O)N[C@H](Cc2c[nH]c3ccccc23)C(=O)O)cc1 [Example 1, N-{[4-(but-2-ynyloxy)phenyl]sulfonyl}-D-tryptophan] showed an IC50 of 2530 nM.

Same assay, conditions: read-out: TACE Inhibition (%)

In order of falling inhibition at 1 µM:
1. CC#CCOc1ccc(S(=O)(=O)N[C@@H](Cc2c(C)n(Cc3ccc(C(F)(F)F)cc3)c3ccc(OC)cc23)C(=O)O)cc1 [Example 195, N-{[4-(but-2-ynyloxy)phenyl]sulfonyl}-5-methoxy-2-methyl-1-[4-(trifluoromethyl)benzyl]tryptophan]  78.3%
2. CC#CCOc1ccc(S(=O)(=O)N[C@@H](Cc2c(C)n(CC(C)C)c3ccc(OC)cc23)C(=O)O)cc1 [Example 210, N-{[4-(but-2-ynyloxy)phenyl]sulfonyl}-1-isobutyl-5-methoxy-2-methyltryptophan]  66.6%
3. CC#CCOc1ccc(S(=O)(=O)N[C@@H](Cc2c(C)n(Cc3ccc4c(c3)OCO4)c3ccc(Cl)cc23)C(=O)O)cc1 [Example 100, 1-(1,3-benzodioxol-5-ylmethyl)-N-{[4-(but-2-ynyloxy)phenyl]sulfonyl}-5-chloro-2-methyltryptophan]  55.6%
4. CC#CCOc1ccc(S(=O)(=O)N[C@@H](Cc2c(C)n(Cc3ccc(C(F)(F)F)cc3)c3ccc(Cl)cc23)C(=O)O)cc1 [Example 93, N-{[4-(but-2-ynyloxy)phenyl]sulfonyl}-5-chloro-2-methyl-1-[4-(trifluoromethyl)benzyl]tryptophan]  53.8%
5. CC#CCOc1ccc(S(=O)(=O)N[C@@H](Cc2c(C)n(Cc3ccc(OC(F)(F)F)cc3)c3ccc(Cl)cc23)C(=O)O)cc1 [Example 94, N-{[4-(but-2-ynyloxy)phenyl]sulfonyl}-5-chloro-2-methyl-1-[4-(trifluoromethoxy)benzyl]tryptophan]  47.4%
6. CC#CCOc1ccc(S(=O)(=O)N[C@@H](Cc2cn(Cc3cccc(F)c3)c3ccc(Cl)cc23)C(=O)O)cc1 [Example 80, N-{[4-(but-2-ynyloxy)phenyl]sulfonyl}-5-chloro-1-(3-fluorobenzyl)tryptophan]  27.1%
7. CC#CCOc1ccc(S(=O)(=O)N[C@@H](Cc2cn(Cc3ccc(OC)cc3)c3ccc(C#N)cc23)C(=O)O)cc1 [Example 139, N-{[4-(but-2-ynyloxy)phenyl]sulfonyl}-5-cyano-1-(4-methoxybenzyl)tryptophan]  25.1%
8. CC#CCOc1ccc(S(=O)(=O)N[C@@H](Cc2cn(Cc3ccccc3OC)c3ccc(Cl)cc23)C(=O)O)cc1 [Example 74, N-{[4-(but-2-ynyloxy)phenyl]sulfonyl}-5-chloro-1-(2-methoxybenzyl)tryptophan]  15%
9. CC#CCOc1ccc(S(=O)(=O)N[C@@H](Cc2cn(Cc3ccccc3OC)c3ccc(C#N)cc23)C(=O)O)cc1 [Example 137, N-{[4-(but-2-ynyloxy)phenyl]sulfonyl}-5-cyano-1-(2-methoxybenzyl)tryptophan]  12.1%
10. CC#CCOc1ccc(S(=O)(=O)N[C@@H](Cc2cn(Cc3ccc(C(=O)O)cc3)c3ccc(C(=O)O)cc23)C(=O)O)cc1 [Example 126, N-{[4-(but-2-ynyloxy)phenyl]sulfonyl}-5-carboxy-1-(4-carboxybenzyl)tryptophan]  8.36%
11. CC#CCOc1ccc(S(=O)(=O)N[C@@H](Cc2cn(Cc3ccccc3)c3ccc(C(=O)O)cc23)C(=O)O)cc1 [Example 103, 1-benzyl-N-{[4-(but-2-ynyloxy)phenyl]sulfonyl}-5-carboxytryptophan]  6.16%
